Reference: US20240158446A1, “CYCLIC COMPOUND HAVING SELECTIVE INHIBITORY ACTION ON KRAS OVER HRAS AND NRAS” (CHUGAI SEIYAKU KABUSHIKI KAISHA, priority 2021, published 2024)

What was measured:
[1] = target: GDP-bound KRAS wild-type protein (Homo sapiens, UniProt P01116); experiment: Binding to KRAS by surface plasmon resonance (SPR), Single Cycle Kinetics; conditions: SPR, Single Cycle Kinetics, GDP-bound KRAS wild-type protein; read-out: KRAS KD
[2] = target: GDP-bound NRAS wild-type protein (Homo sapiens, UniProt P01111); experiment: Binding to NRAS by surface plasmon resonance (SPR), Single Cycle Kinetics; conditions: ratio of KD for GDP-bound NRAS wild-type protein to KD for KRAS, SPR
Sequence of GDP-bound NRAS wild-type protein (P01111 whole entry): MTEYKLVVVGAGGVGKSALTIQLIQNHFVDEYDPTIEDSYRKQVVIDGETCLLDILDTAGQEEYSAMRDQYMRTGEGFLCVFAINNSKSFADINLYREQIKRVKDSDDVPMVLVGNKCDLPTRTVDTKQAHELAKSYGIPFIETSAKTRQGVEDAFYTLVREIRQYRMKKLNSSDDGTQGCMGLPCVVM

[3] = target: GDP-bound HRAS wild-type protein (Homo sapiens, UniProt P01112); experiment: Binding to HRAS by surface plasmon resonance (SPR), Single Cycle Kinetics; conditions: ratio of KD for GDP-bound HRAS wild-type protein to KD for KRAS, SPR
Sequence of GDP-bound HRAS wild-type protein (P01112 whole entry): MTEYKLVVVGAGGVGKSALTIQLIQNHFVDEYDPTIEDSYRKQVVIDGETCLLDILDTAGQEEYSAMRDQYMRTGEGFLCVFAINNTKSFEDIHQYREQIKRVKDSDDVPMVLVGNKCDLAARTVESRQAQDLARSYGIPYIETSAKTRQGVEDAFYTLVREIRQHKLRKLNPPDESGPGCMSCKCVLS

[4] = test system: human lung cancer strain NCI-H441; experiment: cells; conditions: NCI-H441, 96 h, read-out: NCI-H441 IC50 (nM), NCI-H441 cell proliferation, 4 days, CellTiter-Glo;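 also: cell proliferation inhibition after four days measured by CellTiter-Glo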

Sequence of GDP-bound KRAS wild-type protein (P01116 whole entry): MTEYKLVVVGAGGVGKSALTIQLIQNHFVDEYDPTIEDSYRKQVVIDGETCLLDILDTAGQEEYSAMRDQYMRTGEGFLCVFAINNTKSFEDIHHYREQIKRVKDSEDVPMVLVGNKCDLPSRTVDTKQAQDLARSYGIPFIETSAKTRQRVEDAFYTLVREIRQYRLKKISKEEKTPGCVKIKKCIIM

Row | SMILES | Kd [1] [nM] | IC50 [4] [nM] | NRAS/KRAS (KD ratio) [2] | HRAS/KRAS (KD ratio) [3]
1 | CCCN(C)C(=O)[C@@H]1CC(=O)N(C)[C@@H](C2CC2)C(=O)N[C@@H]([C@@H](C)CC)C(=O)N(C)CC(=O)N(C)[C@H]2C/C=C\CCN(C2=O)[C@@H](Cc2ccc(C(F)(F)F)cc2)C(=O)N(C)CC(=O)N[C@@H](CCc2ccc(C(F)(F)F)c(OC)c2)C(=O)N2C[C@H](OCC)C[C@H]2C(=O)NC2(CC(C)(C)C2)C(=O)N(C)[C@@H](C2CCCC2)C(=O)N1C [PP1983] | 0.14 | 20.2 | AA (a compound having 20 or more is denoted as AA) | A (a compound having 10 or more and less than 20 is denoted as A)
2 | CCO[C@@H]1C[C@H]2C(=O)NC3(CC(C)(C)C3)C(=O)N(C)[C@@H](C3CCCC3)C(=O)N(C)[C@H](C(=O)N(C)C)CC(=O)N(C)[C@@H](C3CCC3)C(=O)N[C@@H]([C@@H](C)CC)C(=O)N(C)CC(=O)N(C)[C@H]3C/C=C\CCN(C3=O)[C@@H](Cc3ccc(C(F)(F)F)cc3)C(=O)N(C)CC(=O)N[C@@H](CCc3ccc(C(F)(F)F)c(OC)c3)C(=O)N2C1 [PP1987] | 0.053 | 6.6 | A (a compound having 10 or more and less than 20 is denoted as A) | A (a compound having 10 or more and less than 20 is denoted as A)
3 | CCCN(C)C(=O)[C@@H]1CC(=O)N(C)[C@@H](CC(F)F)C(=O)N[C@@H]([C@@H](C)CC)C(=O)N(C)CC(=O)N(C)[C@H]2C/C=C\CCN(C2=O)[C@@H](Cc2ccc(C(F)(F)F)cc2)C(=O)N(C)CC(=O)N[C@@H](CCc2ccc(C(F)(F)F)c(OC)c2)C(=O)N2C[C@@H](C)C[C@H]2C(=O)NC2(CC(C)(C)C2)C(=O)N(C)[C@@H](C2CCCC2)C(=O)N1C [PP1989] | 0.19 | 11.1 | A (a compound having 10 or more and less than 20 is denoted as A) | A (a compound having 10 or more and less than 20 is denoted as A)
4 | CCCN(C)C(=O)[C@@H]1CC(=O)N(C)[C@@H](COCC)C(=O)N[C@@H]([C@@H](C)CC)C(=O)N(C)CC(=O)N(C)[C@H]2C/C=C\CCN(C2=O)[C@@H](Cc2ccc(C(F)(F)F)cc2)C(=O)N(C)CC(=O)N[C@@H](CCc2ccc(C(F)(F)F)c(OC)c2)C(=O)N2C[C@@H](C)C[C@H]2C(=O)NC2(CC(C)(C)C2)C(=O)N(C)[C@@H](C2CCCC2)C(=O)N1C [PP1991] | 0.15 | 10.8 | A (a compound having 10 or more and less than 20 is denoted as A) | A (a compound having 10 or more and less than 20 is denoted as A)
5 | CCOC[C@H]1C(=O)N[C@@H]([C@@H](C)CC)C(=O)N(C)CC(=O)N(C)[C@H]2C/C=C\CCN(C2=O)[C@@H](Cc2ccc(C(F)(F)F)cc2)C(=O)N(C)CC(=O)N[C@@H](CCc2ccc(C(F)(F)F)c(OC)c2)C(=O)N2C[C@@H](C)C[C@H]2C(=O)NC2(CC(C)(C)C2)C(=O)N(C)[C@@H](C2CCCC2)C(=O)N(C)[C@H](C(=O)N(C)CC)CC(=O)N1C [PP1993] | 0.12 | 13.3 | A (a compound having 10 or more and less than 20 is denoted as A) | A (a compound having 10 or more and less than 20 is denoted as A)
6 | CCO[C@@H]1C[C@H]2C(=O)NC3(CCC3)C(=O)N(C)[C@@H](C3CCCC3)C(=O)N(C)[C@H](C(=O)N(C)CC)CC(=O)N(C)[C@@H](C3CCC3)C(=O)N[C@@H]([C@@H](C)CC)C(=O)N(C)CC(=O)N(C)[C@H]3C/C=C\CCN(C3=O)[C@@H](Cc3ccc(C(F)(F)F)cc3)C(=O)N(C)CC(=O)N[C@@H](CCc3cc(F)c(C(F)(F)F)c(F)c3)C(=O)N2C1 [PP1996] | 0.12 | 15.5 | A (a compound having 10 or more and less than 20 is denoted as A) | B (a compound having 3 or more and less than 10 is denoted as B)
7 | CC[C@H](C)[C@@H]1NC(=O)[C@H](CCOC)N(C)C(=O)C[C@@H](C(=O)N(C)CC)N(C)C(=O)[C@H](C2CCCC2)N(C)C(=O)C2(CC(C)(C)C2)NC(=O)[C@@H]2C[C@H](C)CN2C(=O)[C@H](CCc2ccc(C(F)(F)F)c(OC)c2)NC(=O)CN(C)C(=O)[C@H](Cc2ccc(C(F)(F)F)cc2)N2CC/C=C\C[C@@H](C2=O)N(C)C(=O)CN(C)C1=O [PP1999] | 0.13 | 26.6 | A (a compound having 10 or more and less than 20 is denoted as A) | B (a compound having 3 or more and less than 10 is denoted as B)
8 | CC[C@H](C)[C@@H]1NC(=O)[C@H](C(C)C)N(C)C(=O)C[C@@H](C(=O)N(C)CC)N(C)C(=O)[C@H](C2CCCC2)N(C)C(=O)C2(CC(C)(C)C2)NC(=O)[C@@H]2C[C@H](C)CN2C(=O)[C@H](CCc2ccc(C(F)(F)F)c(OC)c2)NC(=O)CN(C)C(=O)[C@H](Cc2ccc(C(F)(F)F)cc2)N2CC/C=C\C[C@@H](C2=O)N(C)C(=O)CN(C)C1=O [PP2003] | 0.34 | 11.3 | A (a compound having 10 or more and less than 20 is denoted as A) | B (a compound having 3 or more and less than 10 is denoted as B)

Second part, led by results:

Row | Kd [1] [nM] | IC50 [4] [nM] | SMILES | NRAS/KRAS (KD ratio) [2] | HRAS/KRAS (KD ratio) [3]
9 | 0.3 | 50.8 | CC[C@H](C)[C@@H]1NC(=O)[C@H](C2CCC2)N(C)C(=O)C[C@@H](C(=O)N(C)CC)N(C)C(=O)[C@H](C2CCCC2)N(C)C(=O)C2(CC(C)(C)C2)NC(=O)[C@@H]2C[C@H](C)CN2C(=O)[C@H](CCc2cc(F)c(C(F)(F)F)c(F)c2)NC(=O)CN(C)C(=O)[C@H](Cc2ccc(C(F)(F)F)cc2)N2CC/C=C\C[C@@H](C2=O)N(C)C(=O)CN(C)C1=O [PP1984] | A (a compound having 10 or more and less than 20 is denoted as A) | A (a compound having 10 or more and less than 20 is denoted as A)
10 | 0.06 | 11 | CCCN(C)C(=O)[C@@H]1CC(=O)N(C)[C@@H](COCC)C(=O)N[C@@H]([C@@H](C)CC)C(=O)N(C)CC(=O)N(C)[C@H]2C/C=C\CCN(C2=O)[C@@H](Cc2ccc(C(F)(F)F)cc2)C(=O)N(C)CC(=O)N[C@@H](CCc2cc(F)c(C(F)(F)F)c(F)c2)C(=O)N2C[C@H](OCC)C[C@H]2C(=O)NC2(CCC2)C(=O)N(C)[C@@H](C2CCCC2)C(=O)N1C [PP1988] | A (a compound having 10 or more and less than 20 is denoted as A) | A (a compound having 10 or more and less than 20 is denoted as A)
11 | 0.14 | 6.6 | CCO[C@@H]1C[C@H]2C(=O)NC3(CCC3)C(=O)N(C)[C@@H](C3CCCC3)C(=O)N(C)[C@H](C(=O)N(C)CC)CC(=O)N(C)[C@@H](C(C)C)C(=O)N[C@@H]([C@@H](C)CC)C(=O)N(C)CC(=O)N(C)[C@H]3C/C=C\CCN(C3=O)[C@@H](Cc3ccc(C(F)(F)F)cc3)C(=O)N(C)CC(=O)N[C@@H](CCc3cc(F)c(C(F)(F)F)c(F)c3)C(=O)N2C1 [PP1990] | A (a compound having 10 or more and less than 20 is denoted as A) | A (a compound having 10 or more and less than 20 is denoted as A)
12 | 0.21 | 17.7 | CCCN(C)C(=O)[C@@H]1CC(=O)N(C)[C@@H](C(C)C)C(=O)N[C@@H]([C@@H](C)CC)C(=O)N(C)CC(=O)N(C)[C@H]2C/C=C\CCN(C2=O)[C@@H](Cc2ccc(C(F)(F)F)cc2)C(=O)N(C)CC(=O)N[C@@H](CCc2cc(F)c(C(F)(F)F)c(F)c2)C(=O)N2C[C@H](OCC)C[C@H]2C(=O)NC2(CCC2)C(=O)N(C)[C@@H](C2CCCC2)C(=O)N1C [PP1992] | AA (a compound having 20 or more is denoted as AA) | B (a compound having 3 or more and less than 10 is denoted as B)
13 | 0.1 | 22.4 | CCCN(C)C(=O)[C@@H]1CC(=O)N(C)[C@@H](C2CC2)C(=O)N[C@@H]([C@@H](C)CC)C(=O)N(C)CC(=O)N(C)[C@H]2C/C=C\CCN(C2=O)[C@@H](Cc2ccc(C(F)(F)F)cc2)C(=O)N(C)CC(=O)N[C@@H](CCc2cc(F)c(C(F)(F)F)c(F)c2)C(=O)N2C[C@H](OCC)C[C@H]2C(=O)NC2(CCC2)C(=O)N(C)[C@@H](C2CCCC2)C(=O)N1C [PP1994] | AA (a compound having 20 or more is denoted as AA) | A (a compound having 10 or more and less than 20 is denoted as A)
14 | 0.21 | 17.8 | CCCOC[C@H]1C(=O)N[C@@H]([C@@H](C)CC)C(=O)N(C)CC(=O)N(C)[C@H]2C/C=C\CCN(C2=O)[C@@H](Cc2ccc(C(F)(F)F)cc2)C(=O)N(C)CC(=O)N[C@@H](CCc2ccc(C(F)(F)F)c(OC)c2)C(=O)N2C[C@@H](C)C[C@H]2C(=O)NC2(CC(C)(C)C2)C(=O)N(C)[C@@H](C2CCCC2)C(=O)N(C)[C@H](C(=O)N(C)CC)CC(=O)N1C [PP1995] | A (a compound having 10 or more and less than 20 is denoted as A) | B (a compound having 3 or more and less than 10 is denoted as B)
15 | 0.11 | 18.1 | CCCN(C)C(=O)[C@@H]1CC(=O)N(C)[C@@H](CCOC)C(=O)N[C@@H]([C@@H](C)CC)C(=O)N(C)CC(=O)N(C)[C@H]2C/C=C\CCN(C2=O)[C@@H](Cc2ccc(C(F)(F)F)cc2)C(=O)N(C)CC(=O)N[C@@H](CCc2ccc(C(F)(F)F)c(OC)c2)C(=O)N2C[C@@H](C)C[C@H]2C(=O)NC2(CC(C)(C)C2)C(=O)N(C)[C@@H](C2CCCC2)C(=O)N1C [PP2001] | A (a compound having 10 or more and less than 20 is denoted as A) | A (a compound having 10 or more and less than 20 is denoted as A)
